Assays:
[1] = system: mice; test: Stereotypic responses to cocaine (pausing, turning, velocity); assay type: in vivo, mouse; conditions: MPLA 10 μg or 50 μg, response to cocaine
Method: (§1) Locomotion was monitored in 30×30 cm plexiglass boxes by the EthoVision video-tracking system (Noldus) and performed near the end of the light phase of the light-dark cycle under dim red light. After habituating animals to handling, mice received IP injections of saline or cocaine and their activity was recorded for 15 min. Mice were tested during habituation to injection and the activity boxes (saline; days 1-2) and 5 repeated cocaine injections (15 mg/kg; days 3-7). Following 10 days without injections (withdrawal), mice receive a challenge dose of cocaine (15 mg/kg) and locomotor activity again assessed (day 17). Total distance traveled and stereotypy were evaluated from video by EthoVision. For stereotypy, the frequency of which the mouse stops moving (#pauses/min) was measured using a threshold start velocity of 2.00/second and a threshold stop velocity of 0 cm/s. The number of turns per minute (# turns/min) was measured by calculating the frequency for which the path of the mouse turns over a minimum distance of 3.00 cm. Velocity was assessed as the mean distance traveled (cm) over time (s).

[2] = system: mice; test: Basal locomotion; assay type: in vivo, mouse
Method: To determine whether the low TNFα response induced by MPLA can affect the behavioural response to cocaine, it was first assessed if MPLA can alter the basal locomotion of mice. Mice were injected with 10 ug of MPLA, and tested 24 hrs later. No difference in basal locomotion was observed (n=4), compared with saline injected control mice (FIG. 2).
as §1, with “Mice were tested during habituation to injection and the activity boxes (saline; days 1-2) and 5 repeated cocaine injections (15 mg/kg; days 3-7).” left out

[3] = system: TNFα; test: TNFα mRNA / protein in ventral striatum (NAc) after in vivo treatment; design: species or system mouse; conditions: for TNFα mRNA in the ventral striatum: single injection of MPLA 10 μg
Method: To determine the effect of in vivo cocaine exposure on TNFα levels in the ventral striatum, TNFα mRNA and protein levels were measured in mice given intraperitoneal injections of saline or cocaine. […] To understand the impact of TNFα on synaptic function in the NAc, AMPA/NMDA ratios were measured at glutamatergic synapses on MSNs in the NAc core. Alteration in NAc core AMPA receptors are involved in the expression of behavioral sensitization to psychostimulants (Kalives, 2009).
Mice (8-10 weeks) were perfused and their brains submerged overnight in 4% PFA, cryoprotected with 30% sucrose, and cut in 30 μm thick coronal slices using a cryostat. The sections were incubated for 4 hours with blocking solution (2% normal goat serum, 3% BSA, 0.2% Triton X-100 in PBS) before incubation overnight at 4 C with primary antibodies in blocking solution (rabbit anti-Iba1 antibody [019-19741, Wako; 1:800; RRID: AB_2566825], chicken anti-GFAP antibody [AB5541, Millipore; 1:500; RRID: AB_177521], rabbit anti-NeuN [ab104225, Abcam, 1:400; RRID: AB_10711153], and rabbit anti-TNFα antibody [ab6671, Abcam, 1:100; RRID: AB_305641] or mouse anti-TNFα antibody [ab1793, Abcam, 1:100; RRID: AB_302615]). Sections were washed (2×15 min with PBST [0.05% Tween20] and 1×15 min with PBS at RT) and incubated for 2 hrs at room temperature in secondary antibodies (anti-rabbit, anti-chicken, or anti-mouse IgG-conjugated Alexa Fluorochrome [Invitrogen; 1:400]). Sections were washed and briefly (<30 seconds) incubated with Hoechst 33342 [H1399, Molecular Probes; 1:10,000] in PBS. The stained sections were imaged using an Olympus FluoView FV1000 confocal microscope with Fluoview imaging software (FV10-ASW). Images of the ventral striatum (nucleus accumbens core and shell) were acquired with a 40× or 60× objective and stacks of 25-30 optical sections (1 μm per section) of depth were Z-projected into a single window and analysed using ImageJ software (NIH).
The number of Iba1+ microglia were manually counted from 212×212 μm (60× objectives) or 317×317 μm (40× objectives) images. TNFα intensity was measured using the mean grey value of the entire image while Iba1 intensity measurements were obtained using a thresholded area to highlight only the microglia. Cell body area (μm^2) was measured based on Iba1 staining and using the freehand selection tool. Additional analysis of microglia morphology in saline and cocaine treated mice was done using IMARIS software (Bitplane). […] The following parameters were analyzed for 40 microglia per group: total process length (sum of length of all processes), total process volume, process diameter and number of branch points and terminals. […]
After 40 cycles, the Ct values were determined.

## monophosphoryl lipid A [MPLA]
[1]
  mean velocity: significant decreases
  pausing: slight increase
  turning behaviour: significant decreases
[2]; 24 hours after IP injection of 10 μg MPLA
  basal locomotion, distance: 5415±378 cm
[2]; 24 hours after i.p. injection of 10 μg MPLA
  basal locomotion vs saline injected mice: No significant differences
[3]; compared with LPS
  TNF-α levels in vivo, lower than LPS: 10 fold
[3]; 4 hours
  TNFα mRNA in the ventral striatum: significantly increases
[3]; 24 hours
  TNFα mRNA in the ventral striatum: significantly increases

— patent publication US10328092B2, “Methods and compositions for treatment of drug addiction” (The Royal Institution for the Advancement of Learning / …, priority 2015, dated 2019)
